The values below come from patent publication US20250136722A1, “CYTOTOXICITY TARGETING CHIMERAS” (GLAXOSMITHKLINE INTELLECTUAL PROPERTY DEVELOPMENT LIMITED, priority 2021, published 2025).

The target of experiment [1] is T1, CHOK1 cells engineered to overexpress human CCR2 (Homo sapiens, UniProt P41597).
T1 construct: expressed in transfected cells; host or cells: CHOK1 cells
Briefly: Antibody dependent cellular cytotoxicity (ADCC) reporter assay (Example 199). Format: cell-based. The settings on record: with anti-cotinine antibody SEQ ID NO: 11/12; CHOK1-human CCR2 target cells, Jurkat FcγRIIIa NFAT-luciferase reporter cells; 12-18 hours; read-out: ADCC Reporter Assay pEC50 (converted). The method in brief: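 CHOK1-hCCR2 target cells are co-incubated for 12–18 h with Jurkat FcγRIIIa/NFAT-luciferase reporter cells, ARM compound (1 pM–10 μM) and anti-cotinine antibody with a DE-mutant human IgG1 Fc (0.01–200 μg/mL). Luminescence is expressed as signal:background against no-compound wells; EC50 comes from nonlinear fit and is reported as pEC50, averaged across runs.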

Experiment [2] concerns the target Anti-cotinine antibody (SEQ ID NO: 11 / SEQ ID NO: 12, rabbit variable region with human IgG1 Fc domain). The experiment in a line: Binding of anti-cotinine antibody to ARM compounds by SPR, Biacore T200, 37° C. (Example 202). The settings on record: pH 7.4, rabbit variable region/human IgG1 Fc antibody captured on protein A. In short, it runs like this:
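Antibody captured on protein A chip. Compounds injected (3-fold, 5-point, top 200 nM) at 100 μL/min with 200 s association and 2000 s dissociation, at 37° C. in HEPES pH 7.4 buffer with 1% DMSO. Double-referenced data fit to 1:1 kinetics. Kd = koff/kon, reported as pKd, averaged over runs.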

Experiment [3] concerns the target human alpha1 nicotinic acetylcholine (nACh) receptor (Homo sapiens, UniProt P02708+Q07001). Briefly: Nicotinic acetylcholine receptor antagonism assay, IONFlux automated patch clamp (Example 203). Format: cell-based. The settings on record: for Emax at 100 µM: maximum percentage antagonism at maximum concentration tested 100 μM; for Emax at 100 µM / Emax at 10 µM: read-out: Maximum Response (%); for IC50: nAChR antagonism, ACh stimulated, patch clamp; for Emax at 10 µM: maximum percentage antagonism at maximum concentration tested 10 μM. The protocol: Cells expressing human alpha1 nicotinic acetylcholine (nACh) receptor (nAChR) were washed and dissociated using Trypsin containing buffer. Cells were then washed and seeded at a density of 3-5 million cells/mL and allowed to grow for 3 days. Then, 60-80 μL of cells were added to plates and incubated with dose response of an ARM compound of Formula (I) with a top concentration of either 10 μM or 100 μM. The receptor was then stimulated via addition of acetylcholine (ACh) and activation of the receptor was monitored via the IONFlux automated patch clamp system. IonFlux Data Analyzer software was utilized to perform leak subtraction and measure (min) peak current amplitude.
Data processing: (1) Current values recorded for vehicle only applications in individual traps/patterns were subtracted from corresponding current amplitude values for control, test article and control+test article. (2) Control response was calculated as % of the average response of the 3rd out of total 3 ACh (10 mM) applications alone. In rare situations, if the 3rd ACh response was obscured due to technical artifacts, the 2nd and/or 1 st ACh (10 mM) application was considered as control. The peak current amplitude generated in the presence of each test article concentration was then used to calculate the % inhibition as compared to control response (10 mM ACh alone). These estimates were further corrected for vehicle response and run down corrected by normalizing with time matched control responses (10 mM ACh alone). The corrected percentages were then fit with a non-linear function in GraphPad Prism 6 (or later versions) to determine the […].
Exclusion criteria: (i) any n's with poor recording quality, (ii) control current amplitude <500 pA or (iii) significant outliers, as determined by the Grubbs' test.
ARMs compounds of Formula (I) of the invention were tested for antagonism of the nAChR in the above assay in […] experimental runs and the results are shown in Table 7 below. Antagonistic activity of the compounds of Formula (I) of the invention is reported as an IC50 value (half maximal inhibitory concentration) and the maximum percentage antagonism observed at the highest concentration of compound of Formula (I) tested, as indicated in Table 7. For compounds tested in more than one experimental run, the IC50 value is reported as an average.
For orientation: In patch-clamp work, channel activity is measured electrically.

Values joined by “and” are separate entries in the source; they are usually repeats but may differ in a detail not shown here. Equal entries are not always repeated. Bounds are passed on as bounds.

Sequence of human alpha1 nicotinic acetylcholine (nACh) receptor (P02708 21-457): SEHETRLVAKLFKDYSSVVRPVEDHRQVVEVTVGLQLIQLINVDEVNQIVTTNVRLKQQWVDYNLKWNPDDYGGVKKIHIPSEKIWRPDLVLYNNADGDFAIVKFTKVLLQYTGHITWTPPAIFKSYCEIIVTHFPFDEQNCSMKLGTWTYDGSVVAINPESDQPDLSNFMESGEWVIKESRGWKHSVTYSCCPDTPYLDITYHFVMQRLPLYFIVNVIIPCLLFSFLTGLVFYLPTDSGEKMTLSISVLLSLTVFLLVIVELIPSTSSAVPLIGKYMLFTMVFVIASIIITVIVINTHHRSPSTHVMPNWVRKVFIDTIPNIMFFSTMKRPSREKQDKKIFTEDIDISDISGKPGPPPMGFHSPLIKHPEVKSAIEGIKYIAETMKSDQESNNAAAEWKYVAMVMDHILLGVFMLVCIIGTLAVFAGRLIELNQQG
Sequence of human alpha1 nicotinic acetylcholine (nACh) receptor (P11230 24-501 partner): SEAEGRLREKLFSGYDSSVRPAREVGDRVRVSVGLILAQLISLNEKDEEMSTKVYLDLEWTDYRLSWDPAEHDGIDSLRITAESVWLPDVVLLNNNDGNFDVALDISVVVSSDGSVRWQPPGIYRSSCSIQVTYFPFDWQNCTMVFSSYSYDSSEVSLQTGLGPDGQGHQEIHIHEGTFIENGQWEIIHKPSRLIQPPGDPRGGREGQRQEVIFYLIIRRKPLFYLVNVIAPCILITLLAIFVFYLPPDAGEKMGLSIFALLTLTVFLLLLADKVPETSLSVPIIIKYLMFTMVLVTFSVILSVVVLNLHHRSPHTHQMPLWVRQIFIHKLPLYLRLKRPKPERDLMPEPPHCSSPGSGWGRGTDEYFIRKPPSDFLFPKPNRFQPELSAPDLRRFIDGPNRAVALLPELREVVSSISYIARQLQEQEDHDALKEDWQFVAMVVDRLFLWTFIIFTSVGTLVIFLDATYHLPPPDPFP
Sequence of human alpha1 nicotinic acetylcholine (nACh) receptor (Q07001 22-517): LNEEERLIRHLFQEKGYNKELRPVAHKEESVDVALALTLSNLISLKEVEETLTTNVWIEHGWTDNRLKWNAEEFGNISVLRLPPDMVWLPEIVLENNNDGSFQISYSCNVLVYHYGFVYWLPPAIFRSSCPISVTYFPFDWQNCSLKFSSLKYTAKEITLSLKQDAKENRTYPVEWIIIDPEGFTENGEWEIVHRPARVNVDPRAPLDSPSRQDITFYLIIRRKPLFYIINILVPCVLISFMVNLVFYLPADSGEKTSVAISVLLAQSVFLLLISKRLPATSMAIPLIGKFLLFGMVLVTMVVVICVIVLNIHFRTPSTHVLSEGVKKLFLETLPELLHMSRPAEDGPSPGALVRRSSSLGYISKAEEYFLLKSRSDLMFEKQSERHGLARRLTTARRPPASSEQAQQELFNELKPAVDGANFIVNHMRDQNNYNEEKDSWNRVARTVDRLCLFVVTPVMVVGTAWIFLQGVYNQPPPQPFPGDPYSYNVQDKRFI

For orientation: IC50 means the concentration that gives 50% inhibition. For `CC(C)N(C)[C@@H]1CC[C@H](N2CC[C@H](Nc3ncnc4ccc(C(F)(F)F)cc34)C2=O)[C@H](NC(=O)[C@H]2CC[C@@H](NC(=O)CCCO[C@H]3CC[C@H](OCCNC(=O)[C@H]4CC(=O)N(C)[C@@H]4c4cccnc4)CC3)CC2)C1` [Example 5], the EC50 in experiment [1] is 0.316 nM and 0.386 nM. Further, in experiment [2], the “pKd of Antibody for ARM Compound of Formula (I)” value (shortened to “pKd of Antibody”) was 9.19. For the same molecule, in experiment [3], the Emax at 100 µM worked out at 40.5% and the IC50 is greater than 100000 nM.
For the molecule `CC(C)N(C)[C@@H]1CC[C@H](N2CC[C@H](Nc3ncnc4ccc(C(F)(F)F)cc34)C2=O)[C@H](NC(=O)CCOCCNC(=O)CCCO[C@H]2CC[C@H](OCCNC(=O)[C@H]3CC(=O)N(C)[C@@H]3c3cccnc3)CC2)C1` [Example 7], in experiment [1], the EC50 was 0.182 nM. In addition, the “pKd of Antibody” value in experiment [2] was 9.2515. Further, in experiment [3], the Emax at 100 µM worked out at 95% and the IC50 worked out at 13700 nM.
As to `CC(C)N(C)[C@@H]1CC[C@H](N2CC[C@H](Nc3ncnc4ccc(C(F)(F)F)cc34)C2=O)[C@H](NC(=O)[C@H]2CC[C@@H](NC(=O)CCOCCOCCNC(=O)CCNC(=O)[C@H]3CC(=O)N(C)[C@@H]3c3cccnc3)CC2)C1` [Example 16, (2S,3S)-N-(3-((2-(2-(3-(((1S,4s)-4-(((1R,2S,5R)-5-(Isopropyl(methyl)amino)-2-((S)-2-oxo-3-((6-(trifluoromethyl)quinazolin-4-yl)amino)pyrrolidin-1-yl)cyclohexyl)carbamoyl)cyclohexyl)amino)-3-oxopropoxy)ethoxy)ethyl)amino)-3-oxopropyl)-1-methyl-5-oxo-2-(pyridin-3-yl)pyrrolidine-3-carboxamide], the EC50 in experiment [1] was 0.925 nM and 0.119 nM. The “pKd of Antibody” value in experiment [2] is 9.287. In experiment [3], the Emax at 100 µM worked out at 47.8% and the IC50 was greater than 100000 nM.
Regarding `CC(C)N(C)[C@@H]1CC[C@H](N2CC[C@H](Nc3ncnc4ccc(C(F)(F)F)cc34)C2=O)[C@H](NC(=O)[C@H]2CC[C@@H](NC(=O)CCCC(=O)NCCCOCCCNC(=O)[C@H]3CC(=O)N(C)[C@@H]3c3cccnc3)CC2)C1` [Example 18, N^1-((1S,4s)-4-(((1R,2S,5R)-5-(Isopropyl(methyl)amino)-2-((S)-2-oxo-3-((6-(trifluoromethyl)quinazolin-4-yl)amino)pyrrolidin-1-yl)cyclohexyl)carbamoyl)cyclohexyl)-N^5-(3-(3-((2S,3S)-1-methyl-5-oxo-2-(pyridin-3-yl)pyrrolidine-3-carboxamido)propoxy)propyl)glutaramide], in experiment [1], the EC50 is 0.675 nM and 0.132 nM. Moreover, the “pKd of Antibody” value in experiment [2] is on record as 9.0895. Besides, in experiment [3], the Emax at 100 µM was 44.9% and the IC50 was greater than 100000 nM.
Consider `CC(C)N(C)[C@@H]1CC[C@H](N2CC[C@H](Nc3ncnc4ccc(C(F)(F)F)cc34)C2=O)[C@H](NC(=O)[C@H]2CC[C@H](NC(=O)CCCC(=O)NCCCOCCCNC(=O)[C@H]3CC(=O)N(C)[C@@H]3c3cccnc3)CC2)C1` [Example 19], for which, in experiment [1], the EC50 is 4.9 nM. Moreover, the “pKd of Antibody” value in experiment [2] is 9.19. Besides, in experiment [3], the Emax at 100 µM came out at 34.2% and the IC50 was greater than 100000 nM.
Take `CN1C(=O)C[C@H](C(=O)NCCOCCOCCOCCC(=O)N[C@H]2CC[C@@H](C(=O)N[C@@H]3C[C@H](NC(C)(C)C)CC[C@@H]3N3CC[C@H](Nc4ncnc5ccc(C(F)(F)F)cc45)C3=O)CC2)[C@H]1c1cccnc1` [Example 23, (2S,3S)-N-(2-(2-(2-(3-(((1S,4s)-4-(((1R,2S,5R)-5-(tert-Butylamino)-2-((S)-2-oxo-3-((6-(trifluoromethyl)quinazolin-4-yl)amino)pyrrolidin-1-yl)cyclohexyl)carbamoyl)cyclohexyl)amino)-3-oxopropoxy)ethoxy)ethoxy)ethyl)-1-methyl-5-oxo-2-(pyridin-3-yl)pyrrolidine-3-carboxamide]: the EC50 in experiment [1] was 1.12 nM and 2.69 nM and 0.566 nM. Further, the “pKd of Antibody” value in experiment [2] amounted to 9.2166. For the same molecule, in experiment [3], the Emax at 100 µM was determined as 50.5% and the midpoint of inhibition, the IC50, lay at 85200 nM.
As to `CC(C)N(C)[C@@H]1CC[C@H](N2CC[C@H](Nc3ncnc4ccc(C(F)(F)F)cc34)C2=O)[C@H](NC(=O)[C@H]2CC[C@@H](CC(=O)CCCOC[C@H]3CC[C@H](COCCNC(=O)[C@H]4CC(=O)N(C)[C@@H]4c4cccnc4)CC3)CC2)C1` [Example 60], the “pKd of Antibody” value in experiment [2] was determined as 9.4635. In experiment [3], the Emax at 10 µM is 18.2% and the IC50 is greater than 10000 nM.
In the case of `CC(C)N(C)[C@@H]1CC[C@H](N2CC[C@H](Nc3ncnc4ccc(C(F)(F)F)cc34)C2=O)[C@H](NC(=O)[C@H]2CC[C@@H](NC(=O)CCCOCCCCOCCNC(=O)[C@H]3CC(=O)N(C)[C@@H]3c3cccnc3)CC2)C1` [Example 122], the “pKd of Antibody” value in experiment [2] was 9.146. Besides, in experiment [3], the Emax at 10 µM worked out at 23% and the IC50 is greater than 10000 nM.
Turning to `CC(C)N(C)[C@@H]1CC[C@H](N2CC[C@H](Nc3ncnc4ccc(C(F)(F)F)cc34)C2=O)[C@H](NC(=O)COCCNC(=O)CCNC(=O)CCOCCOCCNC(=O)[C@H]2CC(=O)N(C)[C@@H]2c2cccnc2)C1` [Example 181, (2S,3S)-N-(1-(((1R,2S,5R)-5-(Isopropyl(methyl)amino)-2-((S)-2-oxo-3-((6-(trifluoromethyl)quinazolin-4-yl)amino)pyrrolidin-1-yl)cyclohexyl)amino)-1,7,11-trioxo-3,14,17-trioxa-6,10-diazanonadecan-19-yl)-1-methyl-5-oxo-2-(pyridin-3-yl)pyrrolidine-3-carboxamide], the EC50 in experiment [1] is 0.675 nM. Also, the “pKd of Antibody” value in experiment [2] is given as 9.1645.
For `CC(C)N(C)[C@@H]1CC[C@H](N2CC[C@H](Nc3ncnc4ccc(C(F)(F)F)cc34)C2=O)[C@H](NC(=O)[C@H]2CC[C@@H](NC(=O)CCOCCNC(=O)CCCCNC(=O)[C@H]3CC(=O)N(C)[C@@H]3c3cccnc3)CC2)C1` [Example 198, (2S,3S)-N-(5-((2-(3-(((1S,4s)-4-(((1R,2S,5R)-5-(Isopropyl(methyl)amino)-2-((S)-2-oxo-3-((6-(trifluoromethyl)quinazolin-4-yl)amino)pyrrolidin-1-yl)cyclohexyl)carbamoyl)cyclohexyl)amino)-3-oxopropoxy)ethyl)amino)-5-oxopentyl)-1-methyl-5-oxo-2-(pyridin-3-yl)pyrrolidine-3-carboxamide], in experiment [1], the EC50 is 0.398 nM and 0.316 nM. In addition, in experiment [2], the “pKd of Antibody” value was determined as 9.3835.
Regarding `CC(C)N(C)[C@@H]1CC[C@H](N2CC[C@H](Nc3ncnc4ccc(C(F)(F)F)cc34)C2=O)[C@H](NC(=O)[C@H]2CC[C@@H](NC(=O)COCCNC(=O)CCOCCNC(=O)[C@H]3CC(=O)N(C)[C@@H]3c3cccnc3)CC2)C1` [compound 152], the EC50 in experiment [1] was 1.4 nM. In addition, the “pKd of Antibody” value in experiment [2] was 9.111.
As for `CC(C)N(C)[C@@H]1CC[C@H](N2CC[C@H](Nc3ncnc4ccc(C(F)(F)F)cc34)C2=O)[C@H](NC(=O)CCOCCOCCOCCNc2c(NCCCNC(=O)[C@H]3CC(=O)N(C)[C@@H]3c3cccnc3)c(=O)c2=O)C1` [compound 169], the EC50 in experiment [1] was 1.05 nM. In addition, the “pKd of Antibody” value in experiment [2] was 9.0085.
Turning to `CC(C)N(C)[C@@H]1CC[C@H](N2CC[C@H](Nc3ncnc4ccc(C(F)(F)F)cc34)C2=O)[C@H](NC(=O)CCCC(=O)N[C@H]2CC[C@H](CNC(=O)CCOCCNC(=O)[C@H]3CC(=O)N(C)[C@@H]3c3cccnc3)CC2)C1` [compound 180], in experiment [1], the EC50 was 0.456 nM. The “pKd of Antibody” value in experiment [2] is given as 9.249.
